Laboratory results published in patent publication US20260115202A1, “TOPICAL COMPOSITIONS COMPRISING AN ESTETROL COMPONENT AND USE OF SAID COMPOSITIONS FOR WOUND HEALING” (NEURALIS SA, priority 2022, published 2026).

Test system: LPS-induced delayed wound healing mice model
Experiment: In vivo LPS-induced delayed wound healing model: wound histology and immunohistochemistry
Settings: versus LPS/PBO
Description: The in vivo LPS-induced delayed wound healing model was reproduced as previously described (Crompton R, Williams H, Ansell D, Campbell L, Holden K, Cruickshank S, Hardman M J. Oestrogen promotes healing in a bacterial LPS model of delayed cutaneous wound repair. Lab Invest. 2016 April, 96 (4): 439-49).
Female wild-type (C57BL/6J) 8 weeks old mice were split into six groups (6 animals per experimental group): • Double placebo control (no LPS, placebo treatment), • LPS control (LPS, placebo treatment), • LPS with topical EstroGel (estradiol gel, contains 0.06% 17β-estradiol as hemihydrate in a hydro-alcoholic gel), • LPS with topical AG24 (E4 at 0.5%), • LPS with topical AG25 (E4 at 0.22%), • LPS with topical AG26 (E4 at 0.06%).
The day prior to wounding (day −1), all the animals were weighed and anaesthetised using oxygen and isoflurane (flow rate 1.25-2 L with 2-2.5% isoflurane depending on clinical signs). Animals were shaved and dorsal areas prepped. Wound positions (2 wounds) were marked on the dorsum of each animal. Animals received a first subcutaneous injection of 2 μg K. pneumoniae-derived LPS diluted in DPBS (1 μg per wound: Sigma Aldrich, UK: L4268) at the wound site, except the double placebo group that received DPBS only. A thin layer of EstroGel, AG24, AG25, AG26 or placebo were then applied to the dorsum of each animal, measured as 60 μl total (30 μl/wound). Animals recovered in a warming cabinet and were then single housed in fresh cages containing alpha pad, RO water, food, mash and a house. On day 0 (24 hours after first anaesthesia), mice were re-anaesthetised and dorsal skin cleaned with chlorhexidine wipes. Two 6 mm dorsal excisions were created. 2 μg LPS (1 μg per wound) was subcutaneously injected at the wound site as above, except for the double placebo mice that were injected with DPBS. […]
These are expressed in the increase in uterus weight. Next, we evaluated wound closure from histological samples. […] The degree of re-epithelialisation was determined as the length of neo-epidermis divided by the distance between the wound margins, multiplied by 100.

## C[C@]12CC[C@@H]3c4ccc(O)cc4CC[C@H]3[C@@H]1[C@@H](O)[C@@H](O)[C@@H]2O [Formulation E4, 1,3,5 (10)-estratrien-3,15alpha, 16alpha, 17beta-tetrol]
Day 5, K14 immunohistochemistry
  wound re-epithelialisation: promotes re-epithelialization
Day 5, immunohistochemistry
  wound macrophage numbers: reduced numbers of wound macrophages
  wound neutrophil numbers: reduced numbers of wound neutrophils
